ChEMBL document CHEMBL5726505, “Heteroaryl compounds as IRAK inhibitors and uses thereof” (2017)
pIC50: −log10 of the molar value.

biological target: T1, Interleukin-1 receptor-associated kinase 4 (Homo sapiens, UniProt Q9NWZ3); assay: Enzymatic Assay: IRAK4 is a human purified recombinant enzyme (His-TEV-[…] ([…]). IRAK4 hydrolyses ATP, autophosphorylates and phosphorylates a Serine/Threonine generic peptidic substrate (STK: 61ST1BLC from CisBio International based in Bagnols/Cèze FR).Measurement of IRAK-4 inhibition was performed in streptavidin coated 384well FlashPlate (PerkinElmer #SMP410A). His-TEV-IRAK4 (20 ng/well), ATP (2 μM, [33P]ATP 0.25 µCi/well), STK1-biotin peptide (300 nM) and compounds in DMSO (range of concentrations from 20 µM to 1 nM) or controls (2% DMSO) were incubated for 3 hours at 30° C. in assay buffer: Hepes pH7.0 50 mM, Fatty acid-free BSA 0.1%, Dithiothreitol DTT 2 mM, MgCl2 10 mM, EGTA 0.5 mM, Tween-20 0.01%, MnCl2 5 mM.
T1 sequence (Q9NWZ3 whole entry): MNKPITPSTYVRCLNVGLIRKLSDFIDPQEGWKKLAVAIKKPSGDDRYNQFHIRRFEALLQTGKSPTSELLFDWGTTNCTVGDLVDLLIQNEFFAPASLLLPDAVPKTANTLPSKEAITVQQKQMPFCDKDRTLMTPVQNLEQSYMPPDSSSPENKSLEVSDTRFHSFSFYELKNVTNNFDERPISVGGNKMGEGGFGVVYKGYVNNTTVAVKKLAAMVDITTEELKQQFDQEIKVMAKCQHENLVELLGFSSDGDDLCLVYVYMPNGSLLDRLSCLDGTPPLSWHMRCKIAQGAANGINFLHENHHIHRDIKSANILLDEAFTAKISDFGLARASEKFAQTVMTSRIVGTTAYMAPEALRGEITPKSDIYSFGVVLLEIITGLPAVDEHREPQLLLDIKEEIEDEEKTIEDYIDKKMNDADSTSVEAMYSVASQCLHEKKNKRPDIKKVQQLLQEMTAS

Compound	pIC50
Cc1nnc(-c2cnc(-c3cccc(-c4cnn(C)c4)c3)nc2NC2CCN(S(C)(=O)=O)CC2)s1	> 7.00
Cn1cc(-c2cccc(-c3ncc(-c4ccn(C)n4)c(O[C@@H]4CCC[C@@H](N)[C@@H]4O)n3)c2)cn1	> 7.00
Cn1cc(-c2cccc(-c3ncc(-c4cnn(C)c4)c(NCC4CCCN(C(=O)OC(C)(C)C)C4)n3)c2)cn1 (centres undefined)	< 5.30
Cn1cc(-c2cccc(-c3ncc(-c4cnn(C)c4)c(N[C@H]4CCN(S(C)(=O)=O)C4)n3)c2)cn1	> 7.00
